The values that follow come from patent US20230078764A1 (Yumanity Therapeutics, Inc., priority 2019, published 2023).

Like-named read-outs stand apart in the source and are kept apart here.

The target of one experiment is T1, human SCD1 (Homo sapiens, UniProt O00767).
T1 construct: expressed in transfected cells; host or cells: yeast strain with OLE1 deleted, plasmid-borne human SCD1 (selected in SD-Ura)
T1 sequence (O00767 1-359): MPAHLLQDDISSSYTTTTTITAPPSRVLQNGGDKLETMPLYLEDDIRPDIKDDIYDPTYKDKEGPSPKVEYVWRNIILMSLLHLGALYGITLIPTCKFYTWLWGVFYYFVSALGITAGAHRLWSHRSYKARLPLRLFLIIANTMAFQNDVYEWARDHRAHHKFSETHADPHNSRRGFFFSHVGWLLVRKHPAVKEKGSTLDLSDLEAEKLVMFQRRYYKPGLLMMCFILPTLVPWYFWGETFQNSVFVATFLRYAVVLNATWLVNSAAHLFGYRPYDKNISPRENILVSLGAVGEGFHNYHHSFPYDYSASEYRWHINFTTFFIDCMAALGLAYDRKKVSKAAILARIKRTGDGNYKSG
In words: Growth inhibition of yeast strain expressing human SCD1 as sole desaturase (OLE1 deleted), OD600 readout. The format is cell-based.

For a further experiment, the target named is T2, human SCD5 (Homo sapiens, UniProt Q86SK9).
T2 construct: expressed in transfected cells; host or cells: yeast strain with OLE1 deleted, plasmid-borne human SCD5 (selected in SD-Ura)
T2 sequence (Q86SK9 1-330): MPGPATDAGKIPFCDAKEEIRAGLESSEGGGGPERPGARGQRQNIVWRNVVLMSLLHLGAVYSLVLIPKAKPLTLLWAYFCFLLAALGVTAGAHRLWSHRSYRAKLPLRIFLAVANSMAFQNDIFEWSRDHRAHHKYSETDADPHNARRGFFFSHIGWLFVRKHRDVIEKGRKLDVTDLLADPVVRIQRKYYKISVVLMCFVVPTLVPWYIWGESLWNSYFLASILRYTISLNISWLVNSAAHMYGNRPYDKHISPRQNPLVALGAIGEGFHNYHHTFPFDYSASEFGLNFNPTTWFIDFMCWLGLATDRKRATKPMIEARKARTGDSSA
Nature of the experiment: Growth inhibition of yeast strain expressing human SCD5 as sole desaturase (OLE1 deleted), OD600 readout. In kind it is cell-based.

[1] abbreviates: yeast strain expressing human SCD1 as sole desaturase, growth (OD600) after 40 h at 30° C., read-out: SCD1 IC50.
Where [2] appears, read: yeast strain expressing human SCD5 as sole desaturase, growth (OD600) after 40 h at 30° C., read-out: SCD5 IC50.

Usually IC50 stands for the midpoint of a concentration-inhibition curve.

As to `O=C(Nc1ccc(Cc2cccc(Cl)c2)cn1)c1ccc(CCO)nc1` [Compound 366], the IC50 at human SCD1 (setting [1]) and at human SCD5 (setting [2]) was 20 nM each time.
On to `Cn1nc(C(=O)Nc2ccc(Cc3cc(F)c(F)c(Cl)c3)cn2)ccc1=O` [Compound 528], for which the results for the IC50 at human SCD1 (setting [1]) and at human SCD5 (setting [2]) were 60 nM and 10 nM, respectively.
For `COCc1ccc(C(=O)Nc2ccc(Cc3cccc(Cl)c3)cn2)cn1` [Compound 136, N-(5-(3-chlorobenzyl)pyridin-2-yl)-6-(methoxymethyl)nicotinamide] the same measures were 1260 nM and 490 nM.
Turning to `O=C(Nc1ccc(Cc2cccc(Cl)c2)cn1)c1ccc2nccn2c1` [Compound 155, N-(5-(3-chlorobenzyl)pyridin-2-yl)imidazo[1,2-a]pyridine-6-carboxamide], the half-maximal inhibitory concentration (IC50) stood at 24700 nM on human SCD1 (setting [1]) and 7800 nM on human SCD5 (setting [2]).
Regarding `Cc1nccc(C(=O)Nc2ccc(Cc3ccc(F)c(F)c3)cn2)n1` [Compound 485], the IC50 came to 210 nM at human SCD1 (setting [1]) and 21 nM on human SCD5 (setting [2]).
For `Cn1nc(C(=O)Nc2ccc(Cc3cc(F)cc(F)c3Cl)cn2)ccc1=O` [Compound 680] the same measures were 2700 nM and 25 nM.
In the case of `Cn1nc(C(=O)Nc2ccc(Cc3cccc(Cl)c3)cn2)ccc1=O` [Example 47, N-(5-(3-chlorobenzyl)pyridin-2-yl)-1-methyl-6-oxo-1,6-dihydropyridazine-3-carboxamide], the IC50 on human SCD1 (setting [1]) came to 1100 nM; at human SCD5 (setting [2]) it was 130 nM.
For `CN1N=C(C(=O)Nc2cnc(Cc3cccc(F)c3)s2)CCC1=O` [Compound 388], in that order: 17600 nM and over 45000 nM.
For `CNC(=O)c1ccc(C(=O)Nc2ccc(Cc3ccc(F)c(F)c3)cn2)cn1` [Compound 593], the IC50 was over 45000 nM at human SCD1 (setting [1]) and 430 nM on human SCD5 (setting [2]).
Consider `O=C(Nc1ncc(Cc2cccc(F)c2)s1)C1=NN(CCO)C(=O)CC1` [Compound 420], for which the IC50 at human SCD1 (setting [1]) and on human SCD5 (setting [2]) was over 45000 nM each time.
Turning to `CCn1ccc(C(=O)Nc2ccc(Cc3cccc(F)c3)cn2)n1` [Compound 101, 1-ethyl-N-(5-(3-fluorobenzyl)pyridin-2-yl)-1H-pyrazole-3-carboxamide], the IC50 on human SCD1 (setting [1]) came out at 1080 nM; on human SCD5 (setting [2]), 20 nM.
As for `O=C(Nc1ccc(Cc2cccc(Cl)c2)cn1)c1ccc(=O)n(C2CC2)n1` [Compound 256], the half-inhibitory concentration (IC50) was determined as 750 nM at human SCD1 (setting [1]) and 40 nM on human SCD5 (setting [2]).
Take `COc1cc(F)cc(Cc2ccc(NC(=O)c3ccc(=O)n(C)c3)nc2)c1` [Compound 52, N-(5-(3-fluoro-5-methoxybenzyl)pyridin-2-yl)-1-methyl-6-oxo-1,6-dihydropyridine-3-carboxamide]: the concentration for half-maximal inhibition (IC50) turned out to be 8210 nM at human SCD1 (SCD1 IC50) and 130 nM at human SCD5 (SCD5 IC50).
As to `Cc1ccc(NC(=O)c2ccc(Cc3cccc(F)c3)cn2)nn1` [Compound 126, 5-(3-Fluorobenzyl)-N-(6-methylpyridazin-3-yl)picolinamide], the half-inhibitory concentration (IC50) on human SCD1 (setting [1]) is 830 nM; on human SCD5 (setting [2]) it was 230 nM.
In the case of `O=C(Nc1ccc(Cc2cccc(F)c2)cn1)c1cnc2nsnc2c1` [Compound 358], the IC50 on human SCD1 (setting [1]) amounted to 6050 nM; on human SCD5 (setting [2]), 170 nM.
Turning to `CN1CC=C(C(=O)Nc2ccc(Cc3cccc(F)c3)cn2)NC1=O` [Compound 480], the IC50 was determined as 3500 nM at human SCD1 (setting [1]) and 230 nM at human SCD5 (setting [2]).
For `CN1N=C(C(=O)Nc2ncc(COc3cccc(Cl)c3)s2)CCC1=O` [Compound 385], in that order: over 45000 nM and over 45000 nM.
For `Cc1ncc(C(=O)Nc2ccc(Cc3cccc(F)c3)cn2)cn1` [Compound 141, N-(5-(3-fluorobenzyl)pyridin-2-yl)-2-methylpyrimidine-5-carboxamide] the same measures were over 45000 nM and 160 nM.
For `CN1N=C(C(=O)Nc2ncc(Cc3ccc(F)cc3F)s2)CCC1=O` [Compound 234, N-(5-(2,4-difluorobenzyl)thiazol-2-yl)-1-methyl-6-oxo-1,4,5,6-tetrahydropyridazine-3-carboxamide] the same measures were 6300 nM and 1440 nM.
In the case of `CC(O)c1ccc(C(=O)Nc2ccc(Cc3ccc(F)c(F)c3)cn2)cn1` (stereo not drawn) [Compound 514], the half-maximal inhibitory concentration (IC50) on human SCD1 (setting [1]) is 2600 nM; at human SCD5 (setting [2]), 320 nM.
As to `Cn1cc(C(=O)Nc2ccc(Cc3cccc(Cl)c3)cn2)cn1` [Compound 94, N-(5-(3-chlorobenzyl)pyridin-2-yl)-1-methyl-1H-pyrazole-4-carboxamide], the half-maximal inhibitory concentration (IC50) at human SCD1 (setting [1]) amounted to 30 nM; at human SCD5 (setting [2]), 10 nM.
As for `O=C(Nc1ccc(Cc2ccc(F)c(F)c2)cn1)c1ncc(CO)cn1` [Compound 603], the concentration for half-maximal inhibition (IC50) on human SCD1 (setting [1]) and on human SCD5 (setting [2]) was 10 nM each time.
As to `Cn1nc(NC(=O)N[C@H]2CC[C@@H](Cc3cccc(Cl)c3)CC2)ccc1=O` [Compound 322], the IC50 worked out at 12700 nM on human SCD1 (setting [1]) and 6070 nM at human SCD5 (setting [2]).
For `CN1N=C(C(=O)Nc2cc(Cc3cccc(Cl)c3)cnc2N)CCC1=O` [Compound 471], in that order: over 45000 nM and over 45000 nM.
For `Cn1nc(NC(=O)c2ccc(Cc3ccc(F)cc3)cn2)ccc1=O` [Compound 495] the same measures were 560 nM and 15 nM.
Turning to `Cn1cc(C(=O)Nc2ccc(Cc3cccc(Cl)c3)cn2)cc(F)c1=O` [Compound 128, N-(5-(3-chlorobenzyl)pyridin-2-yl)-5-fluoro-1-methyl-6-oxo-1,6-dihydropyridine-3-carboxamide], the IC50 on human SCD1 (setting [1]) was 180 nM; at human SCD5 (setting [2]), 10 nM.
For `CN1N=C(C(=O)Nc2ccc(Oc3ccccc3Cl)cn2)CCC1=O` [Compound 156, N-(5-(2-chlorophenoxy)pyridin-2-yl)-1-methyl-6-oxo-1,4,5,6-tetrahydropyridazine-3-carboxamide], in that order: over 45000 nM and 28100 nM.
For `CN1N=C(C(=O)Nc2ccc(Cc3cncc(Cl)c3)cn2)CCC1=O` [Compound 274] the same measures were over 45000 nM and 760 nM.
In the case of `COc1ncc(C(=O)Nc2ccc(Cc3cccc(Cl)c3)cn2)cn1` [Compound 649], the results for the IC50 on human SCD1 (setting [1]) and on human SCD5 (setting [2]) were 1400 nM and 480 nM, respectively.
For `O=C(NNC(=O)C(F)(F)F)C(=O)Nc1ccc(Cc2cccc(Cl)c2)cn1` [Compound 682] the same measures were 100 nM and 200 nM.
Regarding `CC(O)c1ccc(C(=O)Nc2ccc(Cc3ccc(F)c(Cl)c3)cn2)cn1` (stereo not drawn) [Compound 522], the IC50 at human SCD1 (setting [1]) worked out at 360 nM; on human SCD5 (setting [2]) it was 60 nM.
For `Cn1nc(NC(=O)N2CCC(Cc3cccc(Cl)c3)CC2)ccc1=O` [Compound 309], in that order: 540 nM and 50 nM.
In the case of `Cn1cc(NC(=O)N2CCC(Oc3cccc(Cl)c3)CC2)ccc1=O` [Compound 305], the figures for the half-maximal inhibitory concentration (IC50) at human SCD1 (setting [1]) and on human SCD5 (setting [2]) were 27000 nM and 6940 nM, respectively.
For `Cn1nc(C(=O)Nc2ccc(Cc3ccc(F)c(Cl)c3)cn2)ccc1=O` [Example 46, N-(5-(3-chloro-4-fluorobenzyl)pyridin-2-yl)-1-methyl-6-oxo-1,6-dihydropyridazine-3-carboxamide], in that order: 60 nM and 10 nM.
For `CCn1cc(C(=O)Nc2ccc(Cc3ccc(F)c(F)c3)cn2)ccc1=O` [Compound 582] the same measures were 4300 nM and 280 nM.
As to `Cn1cc(C(=O)Nc2ccc(Cc3ccc(F)c(F)c3)cn2)ccc1=O` [Compound 66, N-(5-(3,4-difluorobenzyl)pyridin-2-yl)-1-methyl-6-oxo-1,6-dihydropyridine-3-carboxamide], the figures for the IC50 against human SCD1 (SCD1 IC50) and against human SCD5 (SCD5 IC50) were 1440 nM and 10 nM, respectively.
In the case of `CN1N=C(C(=O)Nc2nnc(Cc3cccc(Cl)c3)o2)CCC1=O` [Compound 409], the IC50 on human SCD1 (setting [1]) and at human SCD5 (setting [2]) was over 45000 nM each time.
Turning to `Cn1cc(C(=O)NC2CCC(Oc3cccc(Cl)c3)CC2)ccc1=O` (stereo not drawn) [Compound 466], the IC50 on human SCD1 (setting [1]) and at human SCD5 (setting [2]) was over 45000 nM each time.
Consider `CNC(=O)c1ccnc(C(=O)Nc2ccc(Oc3ccccc3Cl)cn2)c1` [Compound 675], for which the concentration for half-maximal inhibition (IC50) on human SCD1 (setting [1]) was over 45000 nM; at human SCD5 (setting [2]), 12000 nM.
Take `CN1N=C(C(=O)Nc2ccc(Cc3ccc(C#N)c(Cl)c3)cn2)CCC1=O` [Example 33, N-(5-(3-chloro-4-cyanobenzyl)pyridin-2-yl)-1-methyl-6-oxo-1,4,5,6-tetrahydropyridazine-3-carboxamide]: the IC50 was over 45000 nM on human SCD1 (setting [1]) and 18000 nM at human SCD5 (setting [2]).
For `CN1N=C(C(=O)Nc2ccc(COc3ccc(F)c(F)c3)cn2)CCC1=O` [Compound 598], in that order: 39000 nM and 150 nM.
Consider `O=C(Nc1ccc(Cc2cccc(F)c2)cn1)c1ccc(=O)n(C2CC2)n1` [Compound 75, 1-cyclopropyl-N-(5-(3-fluorobenzyl)pyridin-2-yl)-6-oxo-1,6-dihydropyridazine-3-carboxamide], for which the figures for the IC50 on human SCD1 (setting [1]) and at human SCD5 (setting [2]) were 1490 nM and 10 nM, respectively.
